# Laboratory results published in PMC3086652 (European journal of immunology, 2010).
# Ends that are not written are not given here.
# Experiments:
# Experiment in all cases: biochemical
# Assay type in all cases: binding
# HLA A*0206 = HLA A*0206 (Homo sapiens, UniProt P04439, D140Y/D185E/D98H/E176V/E277Q/F33Y/G131W/G231S/I119V/I121R/I166T/I218V/L300P/L318F/N151K/N90K/P208A/P217A/Q86G/Q94H/R138H/R169H/T345S)
# HLA A*0201 = HLA A*0201 (Homo sapiens, UniProt P04439, D140Y/D185E/D98H/E176V/E277Q/G131W/G231S/I119V/I121R/I166T/I218V/L300P/L318F/N151K/N90K/P208A/P217A/Q86G/Q94H/R138H/R169H/T345S)
# HLA A*6802 = HLA A*6802 (Homo sapiens, UniProt P04439, A269V/D140Y/D185E/E176V/E277Q/E87N/F33Y/G231S/I121R/I166T/I218V/L180W/L300P/L318F/N151K/P208A/P217A/Q86R/R138H/R169H/S129P/T345S/V36M)
# HLA A*0203 = HLA A*0203 (Homo sapiens, UniProt P04439, A173T/D140Y/D185E/D98H/E277Q/G131W/G231S/I119V/I121R/I166T/I218V/L180W/L300P/L318F/N151K/N90K/P208A/P217A/Q86G/Q94H/R138H/R169H/T345S)
# HLA A*0202 = HLA A*0202 (Homo sapiens, UniProt P04439, D140Y/D185E/D98H/E176V/E277Q/G131W/G231S/I119L/I121R/I166T/I218V/L180W/L300P/L318F/N151K/N90K/P208A/P217A/Q67R/Q86G/Q94H/R138H/R169H/T345S)
Compound,IC50 (HLA A*0206) [µM],IC50 (HLA A*0201) [µM],IC50 (HLA A*6802) [µM],IC50 (HLA A*0203) [µM],IC50 (HLA A*0202) [µM]
"CC(C)C[C@H](NC(=O)[C@@H](N)[C@@H](C)O)C(=O)N[C@@H](CC(N)=O)C(=O)N[C@@H](C)C(=O)N[C@@H](Cc1c[nH]c2ccccc12)C(=O)N[C@H](C(=O)N[C@@H](CCCCN)C(=O)N[C@H](C(=O)N[C@H](C(=O)O)C(C)C)C(C)C)C(C)C [TV9, reference compound]",1.96,0.701,23.9,0.108,0.179
KINAWIKGV [TV9p5],0.224,0.536,36.8,0.01,0.433
KINAWIKVV [TV9p6],13.4,5.12,> 10,0.056,2.95
TINAWIKGV [TV9p29],2.25,1.06,0.269,0.015,0.706
TINAWIKVV [TV9p30],12.6,4.23,6.22,0.112,1.83
